From ChEMBL document CHEMBL5729337, “Substituted eneoxindoles and uses thereof” (2022)

Target: Mitogen-activated protein kinase kinase kinase kinase 1 (Homo sapiens, UniProt Q92918)
Assay: Biochemical Assay: The enzymatic activity of human HPK1 (MAP4K1) was monitored in a biochemical assay in the presence or absence of compounds and using a synthetic peptide substrate. An increase in phosphorylation of the peptide by HPK1 was indicative of its kinase activity.Recombinant HPK1 kinase domain produced via baculovirus infection of insect cells was obtained from Proteros (Proteros Biostructures #PR-0322) and was pre-activated in the presence of 2 mM ATP (Sigma-Aldrich, cat #GE27-2056-01) and 2 mM magnesium chloride for 16 hours at 4° C. The protein reaction mixture was then loaded to a desalting column (Thermo Fisher Scientific, Cat #89889) to remove excess ATP. HPK1 was eluted with buffer containing 20 mM Tris (2-Amino-2-(hydroxymethyl)propane-1,3-diol) pH 8.0, 150 mM NaCl, 2 mM dithiothreitol and 5% glycerol, and was frozen at −80° C. for later use. HPK1 dual phosphorylation was confirmed by mass spectrometry.

Mitogen-activated protein kinase kinase kinase kinase 1, sequence (Q92918 whole entry, the tested form may be a part): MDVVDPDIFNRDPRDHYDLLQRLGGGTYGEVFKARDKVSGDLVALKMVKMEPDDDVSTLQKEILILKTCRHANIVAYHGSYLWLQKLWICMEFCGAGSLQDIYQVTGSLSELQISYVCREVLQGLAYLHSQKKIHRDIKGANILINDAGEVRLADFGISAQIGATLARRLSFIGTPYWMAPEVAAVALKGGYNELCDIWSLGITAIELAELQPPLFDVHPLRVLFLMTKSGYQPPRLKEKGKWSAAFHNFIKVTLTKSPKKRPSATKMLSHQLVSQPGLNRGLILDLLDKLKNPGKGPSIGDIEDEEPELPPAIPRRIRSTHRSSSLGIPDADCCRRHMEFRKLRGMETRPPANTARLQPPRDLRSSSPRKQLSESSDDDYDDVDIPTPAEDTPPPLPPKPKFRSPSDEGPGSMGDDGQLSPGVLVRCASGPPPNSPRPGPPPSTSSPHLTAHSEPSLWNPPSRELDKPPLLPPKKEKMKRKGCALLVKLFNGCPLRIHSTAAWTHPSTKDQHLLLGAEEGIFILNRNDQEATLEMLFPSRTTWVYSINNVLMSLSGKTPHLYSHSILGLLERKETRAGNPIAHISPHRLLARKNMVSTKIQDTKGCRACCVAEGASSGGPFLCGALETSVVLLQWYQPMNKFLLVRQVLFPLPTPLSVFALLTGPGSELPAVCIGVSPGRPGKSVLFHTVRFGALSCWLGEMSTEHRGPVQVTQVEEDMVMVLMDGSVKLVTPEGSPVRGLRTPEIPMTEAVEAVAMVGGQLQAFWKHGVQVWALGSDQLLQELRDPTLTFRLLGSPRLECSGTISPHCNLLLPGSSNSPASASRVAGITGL

## Cc1c(-c2cc(F)c3c(c2)/C(=C/c2cc4cnccc4[nH]2)C(=O)N3)cnc2c1NCCO2
  IC50: 0.1 nM
